Holding throughout (type): cell-based, Raphanus sativus L. cv. Cherry-Belle
Test [1] concerns IAA oxidase. The experiment in a line: IAA oxidase activity in radish cotyledons. To be noted: 20 mg/L, FIG. 7. How it is done:
(§1) Seeds of Raphanus sativus L. cv. Cherry-Belle were germinated in darkness at 24° C. for 40 h in Petri dishes containing filter paper wetted with distilled water. The smaller of the two cotyledons was excised, the fresh weight determined, and 10 cotyledons placed adaxial side down on filter paper in Petri dishes containing 7.5 mL of phosphate buffered saline (PBS, 2 mM, pH 6.0) and the compounds to be tested at 20 mg/L. Cotyledons were then incubated under continuous illumination up to 72 h at 24° C. or 25° C. and the increase in fresh weight determined. Chlorophyll content was determined after extraction of tissue into 80% EtOH (containing butylated hydroxytoluene 10 mg/L) and quantified using the equations Chl a=(13.95A663)-(6.88A647) and Chl b=(24.96A652)-(7.32A663) as described by Lichtenthaler, H K (Methods in Enzymology 148:350-382, 1987). IAA oxidase, PAL, PPO and POD activity were determined as described by Kato, M et al. (Plant and Cell Physiology 41:440-447, 2000) and Li, X et al. (Plant Science 164:549-556, 2003).
IAA Oxidase activity: IAA homeostasis is an important process contributing to correlative control of plant growth and development. Generally, IAA is synthesized in the apices and in shoots; apically derived IAA is basipetally transported. […]

Test [2] concerns PPO (EC 1.14.18.1). The experiment in a line: PPO activity in radish cotyledons. To be noted: 20 mg/L, FIG. 6. As to the method:
as §1
PPO (EC 1.14.18.1): Like PAL and POD, PPO is an important enzyme catalyzing lignin biosynthesis in plants.

For test [3], the system named is radish cotyledons. The experiment in a line: Radish cotyledon expansion bioassay (fresh weight, chlorophyll). To be noted: compounds 20 mg/L, 72 h, 25° C.; for Change in fresh weight: continuous illumination. As to the method: as §1
In order to remove variability from the bioassay—due presumably to temporal changes in the concentration of root-derived cytokinins in cotyledons—the bioassay procedure was modified to routinely include 0.2 mg/L (approximately 1 μM) kinetin in the background.
Cotyledon expansion growth: The effect of soy EML in the presence of kinetin on expansion growth was investigated and the results are shown in Table 1.

The test system of test [4] is radish cotyledons. The test can be described thus: Protein content of radish cotyledons. To be noted: 20 mg/L, FIG. 1. As to the method: as §1
(§2) PAL (EC 4.3.1.5) activity: Ethylene is produced by plants in response to a variety of stresses, including wounding (Kato, M et al. Plant and Cell Physiology 41:440-447, 2000). Assuming the stress is of sufficient intensity and duration plants will also begin to show signs of senescence. […]

Test [5] relates to PAL (EC 4.3.1.5). The experiment in a line: PAL activity in radish cotyledons. The following applies: 20 mg/L, FIG. 1. As to the method:
as §1, §2

The subject of test [6] is POD (EC 1.11.1.7). The test can be described thus: POD activity in radish cotyledons. The following applies: onset of organ maturity, FIG. 4. As to the method: as §1
To determine the effect of EML on induction of POD, activity of this enzyme was monitored during the 72 h incubation period after exposure to soy EML (20 mg/l) and the results are shown in FIG. 4. […] Highest POD activity was measured in control and ACC-treated cotyledons.

For the molecule lysophosphatidylethanolamine [LPE], in test [1], the IAA oxidase activity entry is “no apparent effect”. Further, the PPO activity result in test [2] is “did not induce PPO activity”.
Turning to `NC1(C(=O)O)CC1` [ACC, 1-amminocyclopropane-1-carboxylic acid], in test [3], the “% of control (change in fresh weight)” value is given as 25%, the “Chlorophyll a + b (mg/g FW)” value stood at 5.40 mg/g FW, the “Chlorophyll a + b (μg/cotyledon)” value was found to be 35.90 ± 6.13 μg/cotyledon and the Chlorophyll a/b was 0.83. Further, in test [3], the “Change in fresh weight” value came out at 2.56 ± 0.39 mg. In addition, in test [4], the protein content entry is “delayed and reached a maximum only 24 h after exposure to light”. Further, the PPO activity result in test [2] is “appeared to suppress PPO activity”. Moreover, the PAL activity result in test [5] is listed as “progressively delayed”. The “POD activity at 48 and 72 h” value in test [6] is listed as “Highest”.
Consider `c1coc(CNc2ncnc3[nH]cnc23)c1` [Kinetin, kinetin], for which, in test [3] (Raphanus sativus, read-out: % of control (change in fresh weight)), the activity at 20 µg/mL came to 153%. For the same molecule, in test [3], the “Chlorophyll a + b (mg/g FW)” value came to 2.17 mg/g FW, the “Chlorophyll a + b (μg/cotyledon)” value is 54.10 ± 7.03 μg/cotyledon, the Chlorophyll a/b was found to be 0.87 and the “Change in fresh weight” value came out at 15.49 ± 1.81 mg. Moreover, in test [4], the protein content result is on record as “rapid but transient increase”. Besides, in test [2], the PPO activity entry was “appeared to increase gradually over time”. Further, in test [5], the PAL activity result is reported as “progressively delayed”. The “POD activity at 48 and 72 h” value in test [6] was “lowest”.

These data come from US20070269529A1, “Method For Treating Plants And Plant Parts” (priority 2003, published 2007).
